According to patent US12441695B2, “Substituted thiadiazinone dioxide and preparation method therefor, herbicidal composition, and application therefor” (Qingdao Kingagroot Chemical Compound Co., Ltd., priority 2019, dated 2025):

Columns and labels:
[1] = test system: major crops (wheat, corn, rice, soybean, cotton, oilseed rape, millet, sorghum); test: Experiment on weeding effect in post-emergence stage (crops); type: in vivo; details: 600 g/ha active ingredient plus water 450 kg/ha, 3 weeks after application; for corn plant damage level (growth control rate): crop corn; for rice plant damage level (growth control rate): crop rice; for soybean plant damage level (growth control rate): crop soybean
Method: (§1) The above growth control rates are fresh weight control rates.
(§2) (1) Experiment on weeding effect in post-emergence stage: monocotyledonous and dicotyledonous weed seeds and major crop seeds (wheat, corn, rice, soybean, cotton, oilseed rape, millet, sorghum) were placed in plastic pots filled with soil, then covered with 0.5-2 cm of soil, allowed to grow in a good greenhouse environment. After 2-3 weeks of sowing, the test plants were treated. The tested compounds of the present invention were respectively dissolved in acetone, then added with Tween 80, diluted with a certain amount of water to obtain a solution with a certain concentration, and sprayed with a spray tower onto the plants.

[2] = test system: monocotyledonous and dicotyledonous weeds; test: Experiment on weeding effect in post-emergence stage (weeds); type: in vivo; details: 600 g/ha active ingredient plus water 450 kg/ha, 3 weeks after application, fresh weight control rate; for Amaranthus retroflexus activity level (growth control rate): fomesafen-resistant Amaranthus retroflexus
Source text: The activity level criteria for plant damage (i.e., growth control rate) are as follows: • Level 5: growth control rate is above 85%; • Level 4: growth control rate is greater than or equal to 60% and less than 85%; • Level 3: growth control rate is greater than or equal to 40% and less than 60%; • Level 2: growth control rate is greater than or equal to 20% and less than 40%; • Level 1: growth control rate is greater than or equal to […]; • Level 0: growth control rate is less than 5%.
as §1
as §2, with “plants. After the application, the plants were cultured for 3 weeks in the greenhouse, and then the experimental results of the weeding were listed in Table 2.” for “plants.”

SMILES | corn plant damage level (growth control rate) [1] | rice plant damage level (growth control rate) [1] | soybean plant damage level (growth control rate) [1] | Amaranthus retroflexus activity level (growth control rate) [2] | Digitaria sanguinalis activity level (growth control rate) [2] | Echinochloa crus-galli activity level (growth control rate) [2] | Setaria viridis activity level (growth control rate) [2]
CC(C)N1C(=O)c2cc(F)c(F)cc2NS1(=O)=O [Compound 146] | 1 (Level 1: growth control rate is greater than or equal to 500 and less than 200%) | 0 (Level 0: growth control rate is less than 5%) | 1 (Level 1: growth control rate is greater than or equal to 500 and less than 200%) | 5 (Level 5: growth control rate is above 85%) | 4 (Level 4: growth control rate is greater than or equal to 60% and less than 85%) | 5 (Level 5: growth control rate is above 85%) | 5 (Level 5: growth control rate is above 85%)
CC(C)N1C(=O)c2cc(F)cc(Br)c2NS1(=O)=O [Compound 143] | 1 (Level 1: growth control rate is greater than or equal to 500 and less than 200%) | 0 (Level 0: growth control rate is less than 5%) | 1 (Level 1: growth control rate is greater than or equal to 500 and less than 200%) | 5 (Level 5: growth control rate is above 85%) | 5 (Level 5: growth control rate is above 85%) | 4 (Level 4: growth control rate is greater than or equal to 60% and less than 85%) | 5 (Level 5: growth control rate is above 85%)
CC(C)N1C(=O)c2cccnc2NS1(=O)=O [F, reference compound] | 1 (Level 1: growth control rate is greater than or equal to 500 and less than 200%) | 1 (Level 1: growth control rate is greater than or equal to 500 and less than 200%) | 1 (Level 1: growth control rate is greater than or equal to 500 and less than 200%) | 2 (Level 2: growth control rate is greater than or equal to 20% and less than 40%) | 2 (Level 2: growth control rate is greater than or equal to 20% and less than 40%) | 2 (Level 2: growth control rate is greater than or equal to 20% and less than 40%) | 2 (Level 2: growth control rate is greater than or equal to 20% and less than 40%)
CC(C)N1C(=O)c2ccccc2NS1(=O)=O [G, reference compound] | 0 (Level 0: growth control rate is less than 5%) | 1 (Level 1: growth control rate is greater than or equal to 500 and less than 200%) | 1 (Level 1: growth control rate is greater than or equal to 500 and less than 200%) | 1 (Level 1: growth control rate is greater than or equal to 500 and less than 200%) | 0 (Level 0: growth control rate is less than 5%) | 0 (Level 0: growth control rate is less than 5%) | 1 (Level 1: growth control rate is greater than or equal to 500 and less than 200%)
CCCCCCCCSC(=O)N1c2c(F)cc(F)cc2C(=O)N(C(C)C)S1(=O)=O [Compound 222] | 0 (Level 0: growth control rate is less than 5%) | 0 (Level 0: growth control rate is less than 5%) | – | 5 (Level 5: growth control rate is above 85%) | – | – | –
CC(C)OC(=O)N1c2c(F)cc(F)cc2C(=O)N(C(C)C)S1(=O)=O [Compound 219] | 1 (Level 1: growth control rate is greater than or equal to 500 and less than 200%) | – | – | 5 (Level 5: growth control rate is above 85%) | 3 (Level 3: growth control rate is greater than or equal to 40% and less than 60%) | 5 (Level 5: growth control rate is above 85%) | 5 (Level 5: growth control rate is above 85%)
CC(C)OC(=O)N1c2ccc(F)cc2C(=O)N(C(C)C)S1(=O)=O [Compound 63] | 0 (Level 0: growth control rate is less than 5%) | 0 (Level 0: growth control rate is less than 5%) | 0 (Level 0: growth control rate is less than 5%) | 5 (Level 5: growth control rate is above 85%) | 3 (Level 3: growth control rate is greater than or equal to 40% and less than 60%) | 4 (Level 4: growth control rate is greater than or equal to 60% and less than 85%) | 3 (Level 3: growth control rate is greater than or equal to 40% and less than 60%)
CC(C)N1C(=O)c2cc(F)ccc2NS1(=O)=O [Compound 2] | 1 (Level 1: growth control rate is greater than or equal to 500 and less than 200%) | 0 (Level 0: growth control rate is less than 5%) | 1 (Level 1: growth control rate is greater than or equal to 500 and less than 200%) | 5 (Level 5: growth control rate is above 85%) | 3 (Level 3: growth control rate is greater than or equal to 40% and less than 60%) | 4 (Level 4: growth control rate is greater than or equal to 60% and less than 85%) | 4 (Level 4: growth control rate is greater than or equal to 60% and less than 85%)
COCN1c2ccc(F)cc2C(=O)N(C(C)C)S1(=O)=O [Compound 56] | 0 (Level 0: growth control rate is less than 5%) | 0 (Level 0: growth control rate is less than 5%) | 0 (Level 0: growth control rate is less than 5%) | 3 (Level 3: growth control rate is greater than or equal to 40% and less than 60%) | – | – | –
CC(C)N1C(=O)c2cc(F)cc(F)c2N(C(C)OC(=O)OC2CCCCC2)S1(=O)=O (racemic) [Compound 227] | 0 (Level 0: growth control rate is less than 5%) | 1 (Level 1: growth control rate is greater than or equal to 500 and less than 200%) | 1 (Level 1: growth control rate is greater than or equal to 500 and less than 200%) | 3 (Level 3: growth control rate is greater than or equal to 40% and less than 60%) | – | – | –
CC(C)N1C(=O)c2cc(F)ccc2N(C(=O)C2CC2)S1(=O)=O [Compound 184] | 1 (Level 1: growth control rate is greater than or equal to 500 and less than 200%) | – | – | 5 (Level 5: growth control rate is above 85%) | 3 (Level 3: growth control rate is greater than or equal to 40% and less than 60%) | – | 3 (Level 3: growth control rate is greater than or equal to 40% and less than 60%)
CCCOC(=O)N1c2ccc(F)cc2C(=O)N(C(C)C)S1(=O)=O [Compound 186] | 0 (Level 0: growth control rate is less than 5%) | 0 (Level 0: growth control rate is less than 5%) | 0 (Level 0: growth control rate is less than 5%) | 4 (Level 4: growth control rate is greater than or equal to 60% and less than 85%) | – | – | –
CC(C)N1C(=O)c2cc(F)cc(I)c2NS1(=O)=O [Compound 145] | 1 (Level 1: growth control rate is greater than or equal to 500 and less than 200%) | 0 (Level 0: growth control rate is less than 5%) | 0 (Level 0: growth control rate is less than 5%) | 4 (Level 4: growth control rate is greater than or equal to 60% and less than 85%) | 4 (Level 4: growth control rate is greater than or equal to 60% and less than 85%) | 4 (Level 4: growth control rate is greater than or equal to 60% and less than 85%) | 5 (Level 5: growth control rate is above 85%)
